Measured values taken from PMC8011784, “Chronic peptide-based GIP receptor inhibition exhibits modest glucose metabolic changes in mice when administered either alone or combined with GLP-1 agonism” (PLoS ONE, 2021).

Assays:
DIO mice [1] = test: Chronic GIPA-1 study: body weight and food intake in DIO mice; assay type: in vivo, mouse; conditions: 28 days, HFD; liraglutide 0.2 mg/kg/day SC, GIPA-1 ~4.5 mg/kg/day osmotic minipump; n = 10; vs vehicle (combination: vs liraglutide)
Procedure: 23-week-old male C57BL/6JRj mice (n = 40), fed a HFD (SSNIFF® diet #12492[60% fat, 20% protein, 20% carbohydrate]) for 14 weeks, were distributed into 4 test groups and received daily either vehicle, liraglutide (0.2 mg/kg/day), GIPA-1 (~4.5 mg/kg/day) or liraglutide + GIPA-1 for 4 weeks while still maintained on HFD. GIPA-1 was delivered using minipumps in order to achieve sufficient GIPR antagonism based on the properties of this peptide (Fig 2A). Liraglutide was dissolved in phosphate-buffered saline (PBS) plus 0.1% bovine serum albumin (BSA) (vehicle 1) and GIPA-1 in DMSO/propylene glycol (50/50 volume per volume) (vehicle 2). 100 μL minipumps (Alzet) were filled with GIPA-1 (30 mg/mL) or vehicle 2 and kept in 0.9% saline at 37°C overnight. […] Fasted (4 hrs) blood glucose and insulin levels were measured on study day -3, 14 and 27. […] Blood glucose was measured before their daily dosing and at 0, 15, 30 60, 120, 180 min after glucose administration. Plasma insulin was measured at 0 and 15 min. Whole body weight and food intake were measured throughout the study period. […]
Fig 2 Effects of chronic GIPR antagonism on body weight, food intake, and fasting blood glucose and insulin. […] Statistical analysis was calculated using two-way ANOVA with Tukey’s post-hoc test and one-way ANOVA for AUC with Dunnett’s post-hoc test. *: p< 0.05, **: p < 0.01, ***: p < 0.001, ****: p<0.0001 compared to vehicle.

DIO mice [2] = test: Chronic GIPA-2 study: OGTT in DIO mice; assay type: in vivo, mouse; conditions: day 17; oral glucose 2 g/kg one hour after daily dose; liraglutide 0.2 mg/kg SC, GIPA-2 10 mg/kg SC; n = 10
Procedure: For studying the chronic effects of GIPA-2, male C57BL/6JRj mice (n = 40) were fed a HFD (SSNIFF® diet #12492) for 43 weeks. DIO mice were randomized (n = 10 per group) based on baseline blood glucose and body weight. Liraglutide was dissolved in PBS plus 0.1% BSA (Vehicle1) and GIPA-2 in PBS (vehicle 2). Mice received one of the following four treatments daily for 28 days while still maintained on HFD: (1) vehicle 1 (SC) and vehicle 2 (SC); (2) 0.2 mg/kg liraglutide (SC) and vehicle 2; (3) vehicle 1 (SC) and 10 mg/kg GIPA-2 (SC); and (4) 0.2 mg/kg liraglutide (SC) plus 10 mg/kg GIPA-2 (SC). […] Fasted (4 hrs) blood glucose and insulin were measured on study day -4, 10 and 26. […] Blood glucose was measured before their daily dosing and at 0, 15, 30 60, 120, 180 and 240 min after glucose administration. […] Blood glucose was measured before their daily dosing and at 0, 15, 30 60, 120, 180 min after glucose administration. […]
Fig 3 Effects of GIPA-1 and GIPA-2 on oral glucose tolerance and insulin responses in DIO mice. […] Statistical analysis was calculated using two-way ANOVA with Tukey’s post-hoc test and one-way ANOVA with Dunnett’s post-hoc test. *: p< 0.05, **: p < 0.01, ***: p < 0.001, ****: p<0.0001 compared to vehicle.

**Q.** Which results are given for liraglutide?
**A.** body weight (DIO mice [1]): reduced both body weight and food intake; cumulative food intake (DIO mice [1]): reduced both body weight and food intake; glucose excursion in OGTT (DIO mice [2]): beneficial glucose lowering effects of liraglutide
